Species on record: Rattus norvegicus
Assay: Open TG-GATES - Regimen: Daily Repeat
Assay type: toxicity, organism-based, Sprague-Dawley
Parameters: regimen Daily Repeat, gender Male, age 6 weeks
Conditions: in vivo, po, 1000 mg/kg, route gavage, dose level High; for APTT / Bas / Eos / Fbg / Hb / Ht / Lym / MCH / MCHC / MCV / Mono / Neu / PT / Plat / RBC / Ret / WBC: tissue Blood; for KIDNEY_L / KIDNEY_R / KIDNEY_TOTAL: tissue Kidney; for LIVER: tissue Liver; for ALP / AST / BUN / CRE / Ca / Cl / DBIL / GLC / IP / K / LDH / Na / PL / RALB / TBIL / TC / TG / TP / gamma-GTP: tissue Plasma

COc1ccc2[nH]c([S+]([O-])Cc3ncc(C)c(OC)c3C)nc2c1 (centres undefined) [OMEPRAZOLE]
TERMINAL_BW (72 h, time 3 day): 219.1 g | APTT (72 h, time 3 day): 19.8 s | Bas (72 h, time 3 day): 0% | Eos (72 h, time 3 day): 0.6% | Fbg (72 h, time 3 day): 196 mg/dL | Hb (72 h, time 3 day): 13.8 g/dL | Ht (72 h, time 3 day): 39.6% | Lym (72 h, time 3 day): 83.2% | MCH (72 h, time 3 day): 20.8 pg | MCHC (72 h, time 3 day): 34.8% | MCV (72 h, time 3 day): 59.9 fL | Mono (72 h, time 3 day): 3.8% | Neu (72 h, time 3 day): 11.8% | PT (72 h, time 3 day): 12.1 s | Plat (72 h, time 3 day): 132.7 x10_4/uL | RBC (72 h, time 3 day): 662.2 x10_4/ul | Ret (72 h, time 3 day): 1.7% | WBC (72 h, time 3 day): 99.5 x10_2/uL | KIDNEY_L (72 h, time 3 day): 1 g | KIDNEY_R (72 h, time 3 day): 1 g | KIDNEY_TOTAL (72 h, time 3 day): 1.9 g | LIVER (72 h, time 3 day): 15.4 g | ALP (72 h, time 3 day): 629 IU/L | AST (72 h, time 3 day): 46 IU/L | BUN (72 h, time 3 day): 17.6 mg/dL | CRE (72 h, time 3 day): 0.4 mg/dL | Ca (72 h, time 3 day): 10 mg/dL | Cl (72 h, time 3 day): 101.8 meq/L | DBIL (72 h, time 3 day): 0.094 mg/dL | GLC (72 h, time 3 day): 195 mg/dL | IP (72 h, time 3 day): 7.5 mg/dL | K (72 h, time 3 day): 3.8 meq/L | LDH (72 h, time 3 day): 200 IU/L | Na (72 h, time 3 day): 140.2 meq/L | PL (72 h, time 3 day): 207.4 mg/dL | RALB (72 h, time 3 day): 3.3 g/dL | TBIL (72 h, time 3 day): 0.2 mg/dL | TC (72 h, time 3 day): 120.8 mg/dL | TG (72 h, time 3 day): 157.2 mg/dL | TP (72 h, time 3 day): 5.6 g/dL | gamma-GTP (72 h, time 3 day): 2 IU/L | TERMINAL_BW ([…], time 7 day): 262 g | TERMINAL_BW ([…], time 14 day): 300.1 g | TERMINAL_BW ([…], time 28 day): 351.8 g | APTT ([…], time 7 day): 21.9 s | Bas ([…], time 7 day): 0% | Eos ([…], time 7 day): 0.6% | Fbg ([…], time 7 day): 215.2 mg/dL | Hb ([…], time 7 day): 12 g/dL | Ht ([…], time 7 day): 34.9% | Lym ([…], time 7 day): 80.4% | MCH ([…], time 7 day): 20.3 pg | MCHC ([…], time 7 day): 34.4% | MCV ([…], time 7 day): 59 fL | Mono ([…], time 7 day): 3.8% | Neu ([…], time 7 day): 14.6% | PT ([…], time 7 day): 11.9 s | Plat ([…], time 7 day): 171.4 x10_4/uL | RBC ([…], time 7 day): 591.8 x10_4/ul | Ret ([…], time 7 day): 4.3% | WBC ([…], time 7 day): 118.3 x10_2/uL | APTT ([…], time 14 day): 24.5 s | Bas ([…], time 14 day): 0% | Eos ([…], time 14 day): 0.6% | Fbg ([…], time 14 day): 203.8 mg/dL | Hb ([…], time 14 day): 11.7 g/dL | Ht ([…], time 14 day): 34.1% | Lym ([…], time 14 day): 82.2% | MCH ([…], time 14 day): 18.6 pg | MCHC ([…], time 14 day): 34.2% | MCV ([…], time 14 day): 54.3 fL | Mono ([…], time 14 day): 2.6% | Neu ([…], time 14 day): 13% | PT ([…], time 14 day): 12.7 s | Plat ([…], time 14 day): 139.7 x10_4/uL | RBC ([…], time 14 day): 628.4 x10_4/ul | Ret ([…], time 14 day): 5% | WBC ([…], time 14 day): 131 x10_2/uL | APTT ([…], time 28 day): 23.8 s | Bas ([…], time 28 day): 0% | Eos ([…], time 28 day): 0.6% | Fbg ([…], time 28 day): 196.8 mg/dL | Hb ([…], time 28 day): 12 g/dL | Ht ([…], time 28 day): 35.7% | Lym ([…], time 28 day): 78.6% | MCH ([…], time 28 day): 17.3 pg | MCHC ([…], time 28 day): 33.7% | MCV ([…], time 28 day): 51.3 fL | Mono ([…], time 28 day): 2.2% | Neu ([…], time 28 day): 17.6% | PT ([…], time 28 day): 12.3 s | Plat ([…], time 28 day): 124 x10_4/uL | RBC ([…], time 28 day): 697.2 x10_4/ul | Ret ([…], time 28 day): 4% | WBC ([…], time 28 day): 152.6 x10_2/uL | KIDNEY_L ([…], time 7 day): 1.1 g | KIDNEY_R ([…], time 7 day): 1.1 g | KIDNEY_TOTAL ([…], time 7 day): 2.1 g | KIDNEY_L ([…], time 14 day): 1.2 g | KIDNEY_R ([…], time 14 day): 1.2 g | KIDNEY_TOTAL ([…], time 14 day): 2.3 g | KIDNEY_L ([…], time 28 day): 1.2 g | KIDNEY_R ([…], time 28 day): 1.2 g | KIDNEY_TOTAL ([…], time 28 day): 2.5 g | LIVER ([…], time 7 day): 18.1 g | LIVER ([…], time 14 day): 21.2 g | LIVER ([…], time 28 day): 21.4 g | ALP ([…], time 7 day): 661.8 IU/L | AST ([…], time 7 day): 59.2 IU/L | BUN ([…], time 7 day): 16.6 mg/dL | CRE ([…], time 7 day): 0.4 mg/dL | Ca ([…], time 7 day): 10.7 mg/dL | Cl ([…], time 7 day): 101.4 meq/L | DBIL ([…], time 7 day): 0.064 mg/dL | GLC ([…], time 7 day): 187.4 mg/dL | IP ([…], time 7 day): 8.2 mg/dL | K ([…], time 7 day): 3.9 meq/L | LDH ([…], time 7 day): 242.4 IU/L | Na ([…], time 7 day): 140.6 meq/L | PL ([…], time 7 day): 200.8 mg/dL | RALB ([…], time 7 day): 3.5 g/dL | TBIL ([…], time 7 day): 0.1 mg/dL | TC ([…], time 7 day): 117.6 mg/dL | TG ([…], time 7 day): 62.4 mg/dL | TP ([…], time 7 day): 6.2 g/dL | gamma-GTP ([…], time 7 day): 2.6 IU/L | ALP ([…], time 14 day): 599 IU/L | AST ([…], time 14 day): 52.6 IU/L | BUN ([…], time 14 day): 18.2 mg/dL | CRE ([…], time 14 day): 0.5 mg/dL | Ca ([…], time 14 day): 10.8 mg/dL | Cl ([…], time 14 day): 102.8 meq/L | DBIL ([…], time 14 day): 0.072 mg/dL | GLC ([…], time 14 day): 191.4 mg/dL | IP ([…], time 14 day): 7.8 mg/dL | K ([…], time 14 day): 3.9 meq/L | LDH ([…], time 14 day): 195.8 IU/L | Na ([…], time 14 day): 141.2 meq/L | PL ([…], time 14 day): 206.6 mg/dL | RALB ([…], time 14 day): 3.6 g/dL | TBIL ([…], time 14 day): 0.1 mg/dL | TC ([…], time 14 day): 120.8 mg/dL | TG ([…], time 14 day): 77.8 mg/dL | TP ([…], time 14 day): 6.3 g/dL | gamma-GTP ([…], time 14 day): 2.2 IU/L | ALP ([…], time 28 day): 458.4 IU/L | AST ([…], time 28 day): 50.6 IU/L | BUN ([…], time 28 day): 18.2 mg/dL | CRE ([…], time 28 day): 0.5 mg/dL | Ca ([…], time 28 day): 10.7 mg/dL | Cl ([…], time 28 day): 102.2 meq/L | DBIL ([…], time 28 day): 0.07 mg/dL | GLC ([…], time 28 day): 190.8 mg/dL | IP ([…], time 28 day): 6.9 mg/dL | K ([…], time 28 day): 3.9 meq/L | LDH ([…], time 28 day): 119.2 IU/L | Na ([…], time 28 day): 142.6 meq/L | PL ([…], time 28 day): 185.8 mg/dL | RALB ([…], time 28 day): 3.8 g/dL | TBIL ([…], time 28 day): 0.1 mg/dL | TC ([…], time 28 day): 102.4 mg/dL | TG ([…], time 28 day): 49 mg/dL | TP ([…], time 28 day): 6.6 g/dL | gamma-GTP ([…], time 28 day): 2.4 IU/L

Source: ChEMBL document CHEMBL3885861, “Open TG-GATES”
